The results in this text go back to patent US20210400977A1, “META-DIAMIDE COMPOUNDS FOR CONTROLLING INVERTEBRATE PESTS” (FMC Corporation, priority 2018, published 2021).

The structures appear in SMILES notation.

Data set [1] concerns cotton melon aphid (Aphis gossypii (Glover)). Briefly: Test F: control of cotton melon aphid through contact and/or systemic means. Type of data set: in vivo. The note with it: 144 h, assessed after 6 days; for mortality at 50 ppm: sprayed at 50 ppm.
The subject of data set [2] is sweetpotato whitefly (Bemisia tabaci (Gennadius)). Briefly: Test G: control of sweetpotato whitefly through contact and/or systemic means. Type of data set: in vivo. The following applies: 312 h, assessed after 13 days; for mortality at 50 ppm: sprayed at 50 ppm; for mortality at 250 ppm: sprayed at 250 ppm. The procedure: (§1) Test compounds were formulated using a solution containing 10% acetone, 90% water and 300 ppm Activator 90® non-ionic surfactant (Loveland Products, Loveland, Colo., USA). The formulated compounds were applied in 1 mL of liquid through an atomizer nozzle positioned 1.27 cm (0.5 inches) above the top of each test unit. Test compounds were sprayed at the rates indicated, and each test was replicated three times.
For evaluating control of the sweetpotato whitefly (Bemisia tabaci (Gennadius)) through contact and/or systemic means, the test unit consisted of a small open container with a 12-14-day-old cotton plant or 7-9-day-old soybean plant inside. Prior to the spray application, both cotyledons were removed from the plant, leaving one true leaf for the assay. Adult whiteflies were allowed to lay eggs on the plant and then were removed from the test unit. Cotton or soybean plants infested with at least 15 eggs were submitted to the test for spraying.
Test compounds were formulated and sprayed at 250 and/or 50 ppm. After spraying, the test units were allowed to dry for 1 hour. The cylinders were then removed, and the units were taken to a growth chamber and held for 13 days at 28° C. and 50-70% relative humidity. Each test unit was then visually assessed for insect mortality.

Data set [3] concerns potato leafhopper (Empoasca fabae (Harris)). Briefly: Test D: control of potato leafhopper through contact and/or systemic means. Type of data set: in vivo. The following applies: 144 h, assessed after 6 days; for mortality at 50 ppm: sprayed at 50 ppm. As for the experimental part:
as §1
For evaluating control of potato leafhopper (Empoasca fabae (Harris)) through contact and/or systemic means, the test unit consisted of a small open container with a 5-6-day-old Soleil bean plant (primary leaves emerged) inside. White sand was added to the top of the soil, and one of the primary leaves was excised prior to application of the test compound.
Test compounds were formulated and sprayed at 250 and/or 50 ppm. After spraying of the formulated test compound, the test units were allowed to dry for 1 hour before they were post-infested with 5 potato leafhoppers (18-to-21-day-old adults). A black, screened cap was placed on the top of the test unit, and the test units were held for 6 days in a growth chamber at 20° C. and 70% relative humidity. Each test unit was then visually assessed for insect mortality.

Data set [4] concerns green peach aphid (Myzus persicae (Sulzer)). Briefly: Test E: control of green peach aphid through contact and/or systemic means. Type of data set: in vivo. The note with it: 144 h, assessed after 6 days; for mortality at 50 ppm: sprayed at 50 ppm. The procedure: as §1
For evaluating control of green peach aphid (Myzus persicae (Sulzer)) through contact and/or systemic means, the test unit consisted of a small open container with a 12-15-day-old radish plant inside. This was pre-infested by placing on a leaf of the test plant 30-40 aphids on a piece of leaf excised from a culture plant (cut-leaf method). The aphids moved onto the test plant as the leaf piece desiccated. After pre-infestation, the soil of the test unit was covered with a layer of sand.
Test compounds were formulated and sprayed at 250 and/or 50 ppm. After spraying of the formulated test compound, each test unit was allowed to dry for 1 hour and then a black, screened cap was placed on top. The test units were held for 6 days in a growth chamber at 19-21° C. and 50-70% relative humidity. Each test unit was then visually assessed for insect mortality.

Data set [5] has as its system corn planthopper (Peregrinus maidis (Ashmead)). Briefly: Test C: control of corn planthopper through contact and/or systemic means. Type of data set: in vivo. The following applies: 144 h, sprayed at 250 ppm, assessed after 6 days. The procedure: as §1
For evaluating control of corn planthopper (Peregrinus maidis (Ashmead)) through contact and/or systemic means, the test unit consisted of a small open container with a 3-4-day-old corn (maize) plant inside. White sand was added to the top of the soil prior to application of the test compound.
Test compounds were formulated and sprayed at 250 and/or 50 ppm. After spraying of the formulated test compound, the test units were allowed to dry for 1 h before they were post-infested with ˜15-20 nymphs (18-to-21-day-old). A black, screened cap was placed on the top of each test unit, and the test units were held for 6 days in a growth chamber at 22-24° C. and 50-70% relative humidity. Each test unit was then visually assessed for insect mortality.

Consider `CN(Cc1cc(NC(=O)C2C(c3cc(Cl)cc(Cl)c3)C2(F)F)ccc1Cl)C(=O)C1CC1` (stereo not drawn) [Compound 32], for which the melting point (in general, the temperature, or range, at which the solid turns liquid) lay in the range of 151 to 155 °C.
With `CC(=O)NCc1ccc(Cl)c(NC(=O)C2C(c3cc(Cl)cc(Cl)c3)C2(Cl)Cl)c1` (stereo not drawn) [Compound 135], the melting point fell in the range of 101 to 105 °C.
Same read-out and setting: as for `CC(C)C(=O)NCc1ccc(Cl)c(NC(=O)C2C(c3cc(Cl)cc(Cl)c3)C2(Cl)Cl)c1` (stereo not drawn) [Compound 136], the figure is 187 to 191 °C.
As to `CCC(=O)NCc1cc(NC(=O)C2C(c3cc(Cl)cc(Cl)c3)C2(Cl)Cl)ccc1Cl` (stereo not drawn) [Compound 147], the mortality (commonly the percentage killed) at 50 ppm in data set [1] is at least 80%; in data set [2], at least 70%; in data set [3] it was at least 80%; in data set [4], at least 80%. Also, the mortality at 250 ppm in data set [1] (sprayed at 250 ppm) was at least 80%; in data set [2] it was at least 70%; in data set [3] (sprayed at 250 ppm), at least 80%; in data set [4] (sprayed at 250 ppm), at least 80%.
Take `CCC(=O)NCc1cc(NC(=O)C2C(c3cc(Cl)cc(Cl)c3)C2(Cl)Cl)ccc1F` (stereo not drawn) [Compound 153]: the mortality at 250 ppm in data set [5] is at least 80%; in data set [2], at least 70%. In data set [2], this compound had a mortality at 50 ppm of at least 70%.
For the compound `O=C(Nc1ccc(Cl)c(CNC(=O)C(F)(F)F)c1)C1C(c2ccc(F)c(C(F)(F)F)c2)C1(Cl)Cl` (stereo not drawn) [Compound 174, 2,2-dichloro-N-[4-chloro-3-[[(2,2,2-trifluoroacetyl)amino]methyl]phenyl]-3-[4-fluoro-3-(trifluoromethyl)phenyl]cyclopropanecarboxamide], the mortality at 50 ppm in data set [1], in data set [3] and in data set [4] was at least 80% each time. Further, in data set [2], the mortality at 250 ppm was at least 70%.
As for `CC(=O)NCc1nc(NC(=O)C2C(c3ccc(F)c(Cl)c3)C2(Cl)Cl)ccc1Br` (stereo not drawn) [Compound 247], the melting point was in the range of 170 to 173 °C.
Same read-out and setting: as for `O=C(NCc1nc(NC(=O)C2C(c3ccc(F)c(Cl)c3)C2(Cl)Cl)ccc1Br)C1CC1` (stereo not drawn) [Compound 254], the figure is 152 to 155 °C; as for `O=C(CC(F)(F)F)NCc1nc(NC(=O)C2C(c3ccc(F)c(Cl)c3)C2(Cl)Cl)ccc1Br` (stereo not drawn) [Compound 256], 184 to 187 °C.
